Measured values published in patent EP2857399A1, “Compounds useful for the treatment of PDE5 inhibitor-poorly responsive erectile dysfunction” (GenKyoTex SA, priority 2013, dated 2015).

Tested on: diabetic GK rats
Assay: Erectile response to electrical stimulation of the cavernous nerve (ICP monitoring) in a rat model of type II diabetes mellitus associated erectile dysfunction with impaired sildenafil response
Type: in vivo, Goto-Kakizaki (GK) rats
Method: The efficacy of compounds of Formula (I) for restoring or increasing responsiveness to treatment with a PDE5 inhibitor (sildenafil) is assessed in a rat model of type II diabetes mellitus associated erectile dysfunction in Goto-Kakizaki (GK) rats. Those rats show the main features of the metabolic, hormonal and vascular disorders usually described in T2D patients (Portha et al., 2001, Diabetes 50 (Suppl. 1): S89-S93; Portha et al., 1991, Diabetes 40, 486-491).
Adult male Wistar and age-matched Goto-Kakizaki (GK) rats (obtained by repeated inbreeding of non-diabetic Wistar rats selected at the upper limit or normal distribution if glucose tolerance as described in Goto et al., 1975, Proc. Jpn Acad, 51, 80-5 are housed at least 7 days prior to the beginning of the experiments with free access to standard chow and water and maintained on an inversed 12 h dark/light cycle (10:00/22:00).
At 15 weeks of age, treatment period is started; n=24 GK rats (Groups 4 & 5) receive a dose of compound 5 (30 mg/kg) while n=24 GK (Groups 1 and 3) rats and n=12 Wistar (Group 2) rats receive an equivalent volume of vehicle (25% HPβCD) of compound 5 by daily oral gavage for 28 days.
On day 29th after starting treatment administration, the rats (19 weeks of age) undergo an evaluation of their erectile response measured after electrical stimulation (ES) of the cavernous nerve (CN) by monitoring intracavernous pressure (ICP). For this purpose, rats are anesthetized (urethane […]) after a 3-hour fasting period (necessary for plasma glucose dosage), their temperature maintained at 37°C using a homeothermic blanket. The carotid artery was catheterized to record blood pressure (BP) via a pressure transducer (Elcomatic 750, Glasgow, UK). Both jugular veins were also catheterised to allow intravenous injections. CN is surgically exposed at the lateral aspect of the prostate and mounted on a bipolar platinum electrode connected to an electrical stimulator (AMS 2100, Phymep, France).
As a consequence, there are 16 hours between animals receiving their final administration of compound 5 or vehicle and initiation of evaluation of their erectile function. Rats were anesthetized and then received a 1st intravenous injection (iv) 25%HPβCD, the vehicle of compound 5, 60 minutes prior to the evaluation period of treatment effect. All rats also received a 2nd iv injection of either sildenafil (Sequoia research, Pangbourne, UK) 0.3mg/kg (groups 3 & 5) or normal saline, the vehicle of sildenafil, (groups 1, 2, 4) 56 minutes after the first injection.
At T=-15 minutes, the continuous recording of BP and ICP started. […] Two stimulations of the CN at 15Hz, 1 ms for 45 s were performed to elicit an increase of ICP to certify the correct implantation of the catheter and to assess baseline erectile response prior treatment
At T=0 minute, 25% HPβCD was injected intravenously.
At T+4 minutes and T+30 minutes, the CN was stimulated at 10Hz, 1ms for 45s.At T+56 minutes, sildenafil (0.3mg/kg) or normal saline was intravenously injected.
At T+ 60 minutes, and at 3 minutes intervals thereafter, the CN was stimulated at 6V, 1 ms for 45 s by different stimulation frequencies (10 Hz then 0, 2.5, 5, 7.5, 12.5 and 15 Hz) in a randomized manner in order to assess the erectile responses. These different electrical stimulations were repeated twice in view of establishing a frequency-response curve for each animal.
At T+ 120 minutes, the recording ended. […]

SMILES | AUCtot/MAP following ES CN compared to control healthy Wistar rats (acute sildenafil 0.3 mg/kg combined with chronic compound 5 30mg/kg/day, Figure 1B) | AUCtot/MAP (pro-erectile facilitator effects) (chronic compound 5 30mg/kg/day combined with acute sildenafil iv 0.3mg/kg, p≤0.0001 vs. GK rats, 2-way ANOVA with interaction, figure 1B) | AUC45/MAP (pro-erectile facilitator effects) (chronic compound 5 30mg/kg/day combined with acute sildenafil iv 0.3mg/kg, p≤0.0001 vs. GK rats, 2-way ANOVA, Figure 1A) | erectile responses (AUC45/MAP) compared to healthy Wistar rats (chronic compound 5 alone at 30mg/kg/day, Figure 1A) | increase in AUCtot/MAP compared to each compound administered alone (combination of chronic compound 5 30mg/kg/day and acute sildenafil 0.3mg/kg, p≤0.0001 vs acute sildenafil, p≤0.05 vs chronic compound 5, Figure 1B) | AUCtot/MAP (erectile responses to ES CN) (compound 5 alone, 30mg/kg once daily oral for 4 weeks, compared to GK rats treated with vehicle, p=0.147, figure 1B) | AUC45/MAP (erectile responses to ES CN) (compound 5 alone, 30mg/kg once daily oral for 4 weeks, compared to GK rats treated with vehicle, p≤0.05, figure 1A) | erectile responses (AUC45/MAP) compared to healthy Wistar rats (acute sildenafil alone, iv single administration 0.3mg/kg, Figure 1A) | erectile responses to ES CN (acute sildenafil alone, iv single administration at 0.3mg/kg)
CN(C)c1cccc(-c2c3c(=O)n(-c4ccccc4Cl)[nH]c3cc(=O)n2C)c1 [compound 5, 2-(2-chlorophenyl)-4-[3-(dimethylamino)phenyl]-5-methyl-1H-pyrazolo[4,3-c] pyridine-3,6(2H,5H)-dione] | not significantly different | further increased | further increased | significantly lower | statistically significant | no statistical difference | statistically greater overall erectile responses | – | –
CCCc1nn(C)c2c(=O)[nH]c(-c3cc(S(=O)(=O)N4CCN(C)CC4)ccc3OCC)nc12 [sildenafil, reference compound] | – | – | – | – | – | – | – | significantly lower | pro-erectile facilitator effects
